The supplement of paper PMC10307832

Legend:
Test in all cases: relative viability (nuclei count vs DMSO), 5 days (fraction); higher = more cells survive
[1] = compound: O=C(/C=C/c1ccccc1)NC(NC(=S)Nc1cccc2cccnc12)C(Cl)(Cl)Cl [Salubrinal] + CC1(C)CCC(c2ccc(Cl)cc2)=C(CN2CCN(c3ccc(C(=O)NS(=O)(=O)c4ccc(N[C@H](CCN5CCOCC5)CSc5ccccc5)c(S(=O)(=O)C(F)(F)F)c4)cc3)CC2)C1 [Navitoclax] (partner 0.5 µM)
How it was run: (§1)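 Relative viability was taken as the ratio of nuclei in treated wells to nuclei in vehicle wells. Lung cancer cell lines in 1536-well plates received compounds by pin tool one day after seeding, either one drug alone or a fixed anchor-drug dose plus five library-drug doses (not always all listed) in √10 steps. Nuclei were counted on 4× images after 5 days of treatment, and values are medians of duplicate plates.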

[2] = compound: Cc1ccc2nc(NCCN)c3ncc(C)n3c2c1 + Nc1ncn([C@H]2C[C@H](O)[C@@H](CO)O2)c(=O)n1 [Decitabine] (partner 2 µM)
How it was run: as §1

[3] = compound: Cc1ccc2nc(NCCN)c3ncc(C)n3c2c1 + N=C(N)NC(=N)NCCc1ccccc1 [Phenformin] (partner 250 µM)
How it was run: as §1

[4] = compound: Cc1ccc2nc(NCCN)c3ncc(C)n3c2c1 + CC(=O)Nc1cccc(-n2c(=O)n(C3CC3)c(=O)c3c(Nc4ccc(I)cc4F)n(C)c(=O)c(C)c32)c1 [Trametinib] (partner 0.02 µM)
How it was run: as §1

Cell Line | relative viability ([1]; first compound 0.08 µM) | relative viability ([1]; first compound 0.253 µM) | relative viability ([1]; first compound 0.8 µM) | relative viability ([1]; first compound 2.53 µM) | relative viability ([1]; first compound 8 µM) | relative viability ([2]; first compound 0.04 µM) | relative viability ([2]; first compound 0.1265 µM) | relative viability ([2]; first compound 0.4 µM) | relative viability ([2]; first compound 1.265 µM) | relative viability ([2]; first compound 4 µM) | relative viability ([3]; first compound 0.04 µM) | relative viability ([3]; first compound 0.1265 µM) | relative viability ([3]; first compound 0.4 µM) | relative viability ([3]; first compound 1.265 µM) | relative viability ([3]; first compound 4 µM) | relative viability ([4]; first compound 0.04 µM) | relative viability ([4]; first compound 0.1265 µM) | relative viability ([4]; first compound 0.4 µM) | relative viability ([4]; first compound 1.265 µM) | relative viability ([4]; first compound 4 µM)
Calu-6 | 0.903 | 0.749 | 0.888 | 0.877 | 0.809 |  |  |  |  |  |  |  |  |  |  |  |  |  |  | 
LC-2-ad | 0.5 | 0.35 | 0.666 | 0.54 | 0.413 | 0.728 | 0.728 | 0.705 | 0.712 | 0.768 | 0.637 | 0.546 | 0.55 | 0.547 | 0.44 | 0.927 | 0.963 | 0.881 | 0.965 | 0.86
CAL-12T | 1.29 | 0.952 | 1.21 | 1.09 | 1.06 |  |  |  |  |  | 0.567 | 0.491 | 0.536 | 0.59 | 0.542 | 0.352 | 0.323 | 0.361 | 0.357 | 0.271
RERF-LC-KJ | 0.858 | 1.24 | 0.816 | 0.945 | 0.83 | 0.63 | 0.709 | 0.684 | 0.765 | 0.616 | 0.404 | 0.374 | 0.462 | 0.453 | 0.353 | 0.857 | 0.805 | 0.888 | 0.86 | 0.828
NCI-H1650 | 1.17 | 1.06 | 1.13 | 1.19 | 1.16 | 0.365 | 0.392 | 0.374 | 0.393 | 0.38 | 0.442 | 0.488 | 0.455 | 0.414 | 0.464 | 0.57 | 0.499 | 0.739 | 0.494 | 0.427
BEN | 0.0699 | 0.0611 | 0.0613 | 0.0706 | 0.0675 | 0.623 | 0.737 | 0.686 | 0.885 | 0.685 | 0.288 | 0.265 | 0.293 | 0.247 | 0.296 | 0.97 | 0.929 | 1.07 | 0.958 | 1.05
EMC-BAC-2 | 1.53 | 1.01 | 1.2 | 1.16 | 1.15 | 0.973 | 1.01 | 0.989 | 1.06 | 0.966 | 0.518 | 0.562 | 0.499 | 0.536 | 0.54 | 0.927 | 0.927 | 0.873 | 0.954 | 0.7
LU99A | 0.942 | 0.864 | 0.798 | 0.858 | 0.828 | 1 | 0.922 | 0.91 | 0.812 | 0.833 | 0.797 | 0.78 | 0.673 | 0.892 | 0.798 | 0.501 | 0.604 | 0.541 | 0.618 | 0.577
